Drawing on a melting point compilation (Tetko et al.; mined from patent text by program, amines drawn as free bases though some values may be those of a salt), this text covers melting point for 90 compounds.

For orientation: melting point means the temperature of the solid-liquid transition.

Compound `Cc1cc(N(C)S(=O)(=O)c2cccs2)c2[nH]c(C3=NCC(CNC(=O)OCc4ccccc4)S3)cc2c1` (stereo not given) yielded a melting point of 160 °C.

Consider `CC(Cn1nccn1)n1nnc2cc3c(=O)n(C(C)Cn4nccn4)nnc3cc2c1=O` (stereo not given), for which the melting point is 194 to 195 °C.

In turn, `Cc1cc(-c2ccc(F)cc2)n(-c2ccc(S(C)(=O)=O)cc2)c1` yielded a melting point of 151 to 154 °C.

`O=C1CCN(C(=O)c2cc(-c3ccccc3)c(=O)n3c2-c2sccc2CC3)CC1`: the melting point is 218 to 220 °C.

Turning to `CNC1C(O)CC2C3CCC4CC(OC(C)=O)CCC4(C)C3CCC21C` (stereo not given), the melting point was 197 to 199 °C.

`COc1cccc2c(CCN(CC3CC3)C3COc4c(F)ccc(C(N)=O)c4C3)coc12` (stereo not given) showed a melting point of 130 to 138 °C.

`Cc1oncc1-c1cncc(OC2SCC(O)C(O)C2O)c1` (stereo not given) gave a melting point of 209 °C.

Turning to `CC(C)OC(=O)c1cc2c(cn1)[nH]c1cccc(Oc3ccc(Cl)cc3)c12`, the melting point lay within 273 to 274 °C.

The compound `CC(C)(C)c1cc(CCc2ccccc2NC(=O)NC2CCN(Cc3ccccc3F)CC2)cc(C(C)(C)C)c1O` had a melting point of 136 to 137 °C.

Compound `Cc1ccc(CC2CCN(C(=O)C(=O)Nc3ccc4[nH]c(=O)sc4c3)CC2)cc1` returned a melting point of 221 to 222 °C.

With `COc1ccc(OCC2(Cc3c(C)[nH]c(=O)c(C(C)C)c3O)CC2)cc1`, the melting point lay in the range of 222 to 223 °C.

`OCCOc1cccc2ocnc12` registered a melting point of 47 to 49 °C.

For the compound `Cc1ccc2cccc(OCc3c(C)ccc([N+](=O)[O-])c3C)c2n1`, the melting point was 150 to 152 °C.

As to `O=C(O)COc1ccc(C2=CC(=O)CC(c3ccccc3F)C2)c(Cl)c1Cl` (stereo not given), the melting point was 187 to 190 °C.

Regarding `CCCCc1nc(CCC)n[nH]1`, the melting point is 48.5 to 50 °C.

For the compound `O=C1CN(c2ccncc2)CCN1`, the melting point is 268 to 270 °C.

In turn, `CN1CCC(C2c3ccccc3C=Cc3ccc(Br)cc32)CC1` (single isomer, unassigned; (+)) gave a melting point of 178 to 180 °C.

For the compound `CCC(O)(c1cccc(NS(=O)(=O)CC)c1)c1c[nH]cn1` (stereo not given), the melting point fell in the range of 120 to 124 °C.

`COCCN1C(=O)CCC(C)(C)c2ccc(Nc3ncc(Cl)c(Nc4c(F)cccc4OCC#N)n3)cc21` had a melting point of 235 to 238 °C.

The compound `COc1cccc(Cn2c(C(=O)O)c(-c3ccc(C(=O)NC4CC4)cc3)c3ccccc32)c1` displayed a melting point of 237 °C.

For the compound `CCOC(=O)c1c(-c2cccc(Cl)c2)c2cc(C(=O)c3nc(-c4ccccc4)cs3)ccc2[nH]c1=O`, the melting point was determined as 261 °C.

As to `Cc1cc([N+](=O)[O-])ccc1NCCNC(N)=O`, the melting point stood at 186 °C.

Compound `CS(=O)(=O)c1ccc(-c2oc3ccccc3c(=O)c2-c2ccc(F)c(Cl)c2)cc1` gave a melting point of 196 °C.

`C=Cc1cc(C(C)NC(=O)OC(C)(C)C)ccc1NS(=O)(=O)C=C` (stereo not given) yielded a melting point of 80 to 82 °C.

For the compound `COC(=O)CN(C=O)C1c2ccccc2CCC1(C)C` (stereo not given), the melting point was 74 to 75 °C.

`COC(=O)CCCC=C1SC(=S)N(N=c2sc3ccccc3s2)C1=O` registered a melting point of 210 °C.

Compound `COCCNC(=NC#N)Nc1ccc(C2=NNC(=O)CC2C)cc1` (stereo not given) displayed a melting point of 196 to 197 °C.

`CN(C)CCN(CCN(C)C)c1cccc(-c2nc3cc(Cl)c(Cl)cc3[nH]2)c1` gave a melting point of 129 to 132 °C.

For the compound `Cc1ccccc1Sc1c(N)cc(C(=O)O)cc1S(N)(=O)=O`, the melting point is 277 °C.

In turn, `C[C@H]1N[C@H](c2ccc(Br)cc2)[C@@H]2C(=O)N(Cc3ccccc3)C(=O)[C@@H]21` (racemic) yielded a melting point of 170 to 172 °C.

Turning to `O=c1c2cc(F)c(N3CCCC3)cc2n(-c2ccc(F)cc2F)c(=O)n1OCc1ccccc1`, the melting point was in the range of 212 to 214 °C.

With `COc1ccc(-c2nc(C(=O)O)cn2-c2ccc(OC)cc2)cc1`, the melting point fell in the range of 102 to 105 °C.

Turning to `CCC1c2cc(Cl)ccc2-c2ccc(Cl)cc21`, the melting point lay within 80 to 83 °C.

For `CC(C)c1ccccc1N1C(=O)CON(C)C1=S`, the melting point was 98 to 101 °C.

`COc1ccccc1OCC(O)CCCl` (stereo not given) showed a melting point of 48 to 50 °C.

Compound `CC(C)(C)c1cc(-c2nn(C3(C)COC(=O)O3)c3ncccc23)cc(C(C)(C)C)c1O` (stereo not given) came in with a melting point of 190 to 191 °C.

Regarding `CCCCCCCCCCCCn1nnc(NC2CCCCC2)n1`, the melting point is 51 to 53 °C.

`O=C(Nc1ccc(Cl)c(Cl)c1)Oc1cccc(N=C=S)c1` gave a melting point of 118 to 123 °C.

Regarding `COC(=O)c1cccc2c1c(S(=O)(=O)NC(C)(C)C)nn2C`, the melting point lay within 189 to 190 °C.

In turn, `Oc1ccc2c(c1)SCCc1c-2n(CCCCCN2CCCC2)c2ccc(O)cc12` had a melting point of 202 to 204 °C.

For the compound `O=C1CNc2ccccc2CN1`, the melting point lay in the range of 167 to 170 °C.

Turning to `N#Cc1cc2cccnc2nc1Cl`, the melting point stood at 273 °C.

As to `COc1ccccc1NC(=O)Nc1nc(N2CCOCC2)nc(N(CCC(=O)O)Cc2cccc(C)c2)n1`, the melting point fell in the range of 101 to 102 °C.

`COc1ccc2c(c1)c(Cc1cc(=O)n(-c3ccc(C(F)(F)F)cc3)[nH]1)c(C)n2C(=O)c1ccc(C#N)cc1` had a melting point of 92 to 94 °C.

Consider `CCCCCCc1ccc(C2CN=C(NC(=O)OC)N2C)cc1` (stereo not given), for which the melting point was 115 to 116 °C.

As to `COC(=O)CC1CCc2cc(OC)ncc2C1O` (stereo not given), the melting point is 92 to 96 °C.

In turn, `CN(C(=O)CN(C(=O)CNC(=O)OC(C)(C)C)c1ccccc1O)c1ccccc1` came in with a melting point of 185 to 188 °C.

Compound `COc1cccc(CNC(=O)c2cc3c(=O)n(CC#N)c(=O)n(C)c3s2)c1` yielded a melting point of 159 to 163 °C.

`CS(=O)(=O)c1ccc(-c2cnn(-c3cccc(Cl)c3)c(=O)c2Cl)cc1` displayed a melting point of 203 to 204 °C.

`Cc1ccc(CCOc2cccc3c(Cl)ccnc23)cc1` yielded a melting point of 74 to 75 °C.

The compound `CC(C)c1ccc(C2c3[nH]c4ccccc4c3CCN2C(=O)C=Cc2cccc([N+](=O)[O-])c2)cc1` (stereo not given) registered a melting point of 195 °C.

`O=C(O)c1cccc(NCc2cccc(Cl)c2)c1C(=O)O` came in with a melting point of 207 to 209 °C.

As to `COC(=O)c1ccccc1-c1noc(-c2ccc(OC)cc2)n1`, the melting point lay in the range of 73 to 75 °C.

With `CC(Cc1c[nH]c2ccccc12)(NC(=O)OC1C2CC3CC(C2)CC1C3)C(=O)O` (stereo not given), the melting point was in the range of 210 to 215 °C.

For the compound `O=CCCNC(=O)c1ccc[nH]1`, the melting point is 88 to 90 °C.

The compound `COc1cc(C2CCN(CC(O)CF)CC2)ccc1Nc1ncc2ccc(-c3ccccc3OC)n2n1` (stereo not given) registered a melting point of 73 to 79 °C.

Compound `COc1ccc2c(c1)c(CC(=O)N(O)C1CCCCC1)c(C)n2C(=O)c1ccc(Cl)cc1` registered a melting point of 208 to 210 °C.

For the compound `COc1ccc(C(=O)CSCc2ccncc2)cc1`, the melting point was in the range of 64 to 65 °C.

Consider `Cc1cc(C(=O)c2[nH]c3cc(Cl)ccc3c2CC(=O)O)no1`, for which the melting point was in the range of 227 to 229 °C.

Turning to `OC(Cn1ccnc1)c1cccc2ccccc12` (stereo not given), the melting point is 112 to 115 °C.

The compound `COC(=O)c1ccc(SCc2cccc(C(F)(F)F)c2)c(C)n1` came in with a melting point of 91 to 93 °C.

Compound `CS(=O)c1ccc(-c2coc3ccc(-c4nnc(S)o4)cc23)cc1` (stereo not given) had a melting point of 234 to 235 °C.

Regarding `Cc1nn2ccccc2c1C(=O)C1=CN(C(=O)Nc2ccc(Cl)cc2)CCC1`, the melting point lay in the range of 198 to 200 °C.

On to `Cc1oc(-c2ccccc2)nc1C(O)COc1ccc(N)cc1` (stereo not given), for which the melting point was 139 to 140 °C.

For the compound `CS(=O)(=O)c1cccc(NC(=O)c2cnn3c(C(F)F)cc(-c4ccc(C(F)(F)F)c(OCC(F)(F)F)c4)nc23)c1`, the melting point is 207 °C.

In turn, `N#Cc1ccc(-c2ccco2)cn1` yielded a melting point of 115 to 116 °C.

`CCOC(=O)c1cnc2nn(C)cc2c1NC(C)CC` (stereo not given) yielded a melting point of 132 to 134 °C.

In turn, `O=C(CCl)NC(c1ccc(F)cc1)c1ccc(F)cc1` returned a melting point of 128 °C.

Turning to `CCOC(=O)C=Cc1ccc(NC(C)=O)cc1`, the melting point lay in the range of 126 to 127 °C.

For the compound `CC(=Cc1c[nH]c2ccc(CNS(C)(=O)=O)cc12)[N+](=O)[O-]`, the melting point was in the range of 201 to 202 °C.

Consider `Cc1cccc(C(C(O)C(C)(C)C)n2ccnc2)c1` (stereo not given), for which the melting point stood at 126 °C.

For `CC(C)c1ccc(-c2ccc(C3N=C(c4ccccc4Cl)CC3C#N)cc2)cc1` (stereo not given), the melting point lay in the range of 127 to 128 °C.

In the case of `CC(=O)C1CCC2C3CCC4CC(O)(C#Cc5ccccn5)CCC4(C)C3CCC12C` (stereo not given), the melting point fell in the range of 192 to 195 °C.

Regarding `O=C(c1ccccc1)c1nsc2nc3ccccc3n12`, the melting point was 190 to 191 °C.

`CC(C)(Cl)C(CO)=NO` had a melting point of 114 to 115 °C.

`COc1ccc2nc(CBr)ccc2c1`: the melting point is 103 °C.

Take `CC(C)(C)OC(=O)CN1CC(c2cccs2)SCC(N)C1=O` (stereo not given): the melting point was 81 to 82 °C.

`C[Si](C)(C)c1ccc(NC(=O)CCCC=C(F)F)cc1` gave a melting point of 50 to 51 °C.

Compound `CC1(C)OC(=O)C(Sc2ccccc2)=C1c1ccc(S(C)(=O)=O)cc1` yielded a melting point of 98 to 114 °C.

As for `CC(C)(C)ON=C(C(=O)O)c1cccs1`, the melting point was in the range of 106 to 107 °C.

On to `CN1CCCC(O)(c2cccc3[nH]ccc23)C1` (stereo not given), for which the melting point was 250 °C.

For `CCCCCCCCCCCCCCCCCCSc1ccc(O)cc1`, the melting point worked out at 95 °C.

The compound `CCn1cc(-c2ccc(O)cc2)nc1S` returned a melting point of 252 °C.

The compound `CN(C)C(=O)n1nc(N)c2ccc(Cl)cc21` yielded a melting point of 170 to 172 °C.

As for `C(=Cc1nc2ccccc2s1)c1ccc2cc(N(c3ccccc3)c3ccccc3)ccc2c1`, the melting point lay in the range of 181 to 185 °C.

Take `COc1nn(-c2cccc(Nc3nccs3)c2)c(=O)n(Cc2ccc(Cl)cc2)c1=O`: the melting point was in the range of 176 to 178 °C.

For the compound `CCOC(=O)C(Cl)=NNc1ccccc1Br`, the melting point was found to be 106 °C.

`CC(Cc1ccncc1)(NC(=O)OC1C2CC3CC(C2)CC1C3)C(=O)NCCc1ccccc1` (stereo not given) came in with a melting point of 176 °C.

On to `Cc1ccc(OC2COc3ccc(OCc4ccc5cc(F)ccc5n4)cc3C2O)cn1` (stereo not given), for which the melting point lay within 164 to 165 °C.

As to `CS(=O)(=O)NCCCCn1c(-c2ccccc2)nc2c(N)nc3ccccc3c21`, the melting point was 234 to 235 °C.
